Patent US8377918B2 (ACC Therapeutics Inc, priority 2005, dated 2013)

Experiments:
[1] = tested on: tumors induced by A2780/CP70 cells; assay: Tumor weight of A2780/CP70 tumors on CAM; assay type: in vivo, chicken embryo; settings: 10 μM apigenin or 2.5 μM CDDP+10 μM apigenin, 10 days
Procedure: FIG. 4. […] The A2780/CP70 cells were seeded into 100 mm dish and grown to 90-100% confluence. […] In 10 days, the tumors were harvested and weighed. The blood vessel numbers of the tumor were counted under×100. At least five areas were determined. The data are mean±SD from two experiments (n=8). A, representative tumor morphology; B, tumor weight; C, relative numbers of blood vessels.

[2] = tested on: lung cancer cell A549; assay: A549 cell counting proliferation; assay type: cell-based, human; settings: A549, 10 and 20 μM, 24 and 48 h
Procedure: FIG. 12. […] A, A549 cells were seeded at 5 ×10^5 cells/well on a 24-well plate, and cultured overnight the day before the treatment. […] After 24 and 48 h, aliquots of cells were counted in triplicate using a hemocytometer to obtain cell number and proliferation rate.

[3] = tested on: A549 tumors; assay: A549 tumor growth in nude mice; assay type: in vivo; settings: 3 mg/kg intraperitoneal three times a week, day 40
Procedure: FIG. 15. […] Each treatment group contained 10 mice. […] The mice were euthanized on day 40. A, representative tumors from the control and apigenin-treated groups. Scale bar, 1 cm. B, tumor volumes were measured by the width and length of tumors from 10 mice in each treatment when tumors were visible. The mean±S.D. were obtained from 10 mice. C, the tumors were removed from mice, measured by the width and length, and analyzed as above. D, the mean±S.D. of the tumor weight. *, significant difference when compared with the solvent control (p<0.05).

[4] = tested on: endothelial cells; assay: Tube formation in vitro; assay type: cell-based
[5] = tested on: VEGF expression in OVCAR-3 cells; assay: VEGF ELISA of supernatants, OVCAR-3; assay type: cell-based, human; settings: OVCAR-3, 15 h
Procedure: FIG. 6. […] OVCAR-3 and A2780/CP70 cells were plated in 12-well plates and cultured to 90% confluence. […] The concentrations of VEGF in the supernatants were determined by ELISA method as described in Materials and Methods. The data are mean±SE from three independent experiments and each experiment was performed with triplicate cultures.

[6] = tested on: HCT-116 cells; assay: MTT cell proliferation assay, HCT-116 colon cancer cells; assay type: cell-based, human; settings: HCT-116, apigenin alone, 24 h
Procedure: (§1) FIG. 17. […] A, the prostate cancer cells PC-3 and DU145; B, colon cancer cells Colo-205 and HCT-116; C, lung cancer cells A549 and H460 cells were plated at 1×10^4 cells per well in a 96 well plate in 100 μl of media.

[7] = tested on: A2780/CP70 cells; assay: Annexin V apoptosis assay, A2780/CP70; assay type: cell-based, human; settings: 24 h
Procedure: FIG. 1. […] (A) A2780/CP70 cells and human fibroblast GM847 cells were seeded in 96-well plate at 4×10^3 cells per well and incubated overnight. […] The cells were incubated for 24 h. Cell proliferation was determined by MTT reduction. […] Cells were trypsinized, harvested, washed once with PBS buffer, and stained using the Annexin-V-Folus Kit as per the manufacture's instructions. […] After incubation, all cells were collected and total DNA was isolated. Eight (8) μg of DNA was resolved on 1.8% agarose gel. […] (D) Treatment of GM847 cells was the same as that of 5D. […] Cleavage of caspase-3 and PARP was detected by western-blot.
FIG. 10. […] The cisplatin-resistant ovarian cancer A2780/CP70 cells were seeded in a petri dish. […] After treatment, the cells were collected and the relative cellular apoptosis was analyzed by Annexin V Kit (Roche), and compared to the control.

[8] = tested on: PC-3 cells; assay: MTT cell proliferation assay, PC-3 prostate cancer cells; assay type: cell-based, human; settings: 24 h
Procedure: FIG. 8. […] Prostate cancer cells PC-3 and DU145 were seeded in 96-well plates at 1×10^4 cells/well. […] The cell proliferation was assayed by culturing the cells for 24 h, then adding 10 μl of MTT reagent with incubation for 2 h. The reaction was stopped by adding 100 μl of solubilization solution. The relative cell proliferation was obtained by the reading at 590 nm which was recorded in a spectrophotometer, and normalized to the value of control.
FIG. 9. […] A, Cisplatin-resistant ovarian cancer cell line A2780/CP70, and B, prostate cancer cells PC-3 were seeded in 96-well plates at 1×10^4 cells/well and incubated overnight.
as §1
FIG. 18. […] A and B, the prostate cancer cells PC-3 and DU145; C, colon cancer cells Colo-205 and HCT-116; D, lung cancer cells A549 and H460 cells were plated at 1×10^4 cells per well in a 96 well plate in 100 μl of media. […] The cell proliferation was analyzed by MTT assay.
FIG. 19. […] A, prostate cancer cells PC-3; and B, DU145 cells were plated at 1×10^4 cells per well in a 96 well plate in 100 μl of media. […] Cell proliferation was examined by MTT assay.
FIG. 23. […] Cell proliferation was examined by MTT assay.

[9] = tested on: A2780/CP70 tumors; assay: New blood vessel formation in tumors on CAM; assay type: in vivo, chicken embryo; settings: 15 μM apigenin, 100 h
Procedure: FIG. 7. […] A2780/CP70 ovarian cancer cells were mixed with Matrigel and implanted onto the chorioallantoic membrane (CAM) of a 9-day old embryo. In 100 h, the tumor was cut off and the newly-formed blood vessels on the back of the tumor were determined.

[10] = tested on: A549 cell-induced tumor angiogenesis; assay: A549 Matrigel plug angiogenesis in nude mice; assay type: in vivo; settings: 15 μM apigenin in plug, 15 days
Procedure: FIG. 16. […] Each treatment group contained four mice. The mice were euthanized 15 days after implantation. Representative Matrigel plugs from the solvent- and apigenin-treated groups. C, D, the relative angiogenesis was analyzed by the levels of RBC hemoglobin, a surrogate marker, in the Matrigel plugs. The hemoglobin content was analyzed by adding 1×RBC lysis buffer (1 mM EDTA and 5 mM potassium/sodium phosphate buffer, pH 8-8.5) to a plug, followed by incubation at 4° C. overnight. Hemoglobin levels were determined by the Drabkin method by a commercial assay kit (Sigma) according to the manufacturer's instruction with some modification. […] Relative hemoglobin content is the hemoglobin level (milligrams) divided by the final volume of each plug. The data are the mean±S.E. of eight Matrigel plugs for each experiment. *, significant difference compared with the solvent control (p<0.05).

SMILES: O=c1cc(-c2ccc(O)cc2)oc2cc(O)cc(O)c12 [apigenin, 4′,5,7,-trihydroxyflavone]
- inhibition of tumor growth [1]: 40%
- effect on lung cancer cell proliferation [2]: significantly inhibits
- effect on tumor growth in vivo [3]: inhibited tumor growth in vivo
- effect on tube formation [4]: inhibited tube formation
- effect on expression of VEGF [5]: inhibited the expression of VEGF
- effect on cell proliferation [6]: inhibited the proliferation
- cells undergoing apoptosis ([7]; A2780/CP70, 10 μM apigenin or 10 μM apigenin plus 10 μM cisplatin): 12%
- induction of apoptosis ([7]; A2780/CP70, apigenin alone): specifically induced apoptosis
- effect on sensitivity to etoposide treatment ([8]; PC-3, 15 μM apigenin): increased the sensitivity
- effect on cell proliferation ([8]; PC-3, apigenin alone): inhibited
- effect on new blood vessel formation (angiogenesis) in tumors [9]: inhibited new blood vessel formation
- effect on tumor angiogenesis (hemoglobin content of Matrigel plugs) [10]: inhibited A549 cell-induced tumor angiogenesis
